± gives the expanded uncertainty stated by the source.
Experiment: molar heat capacity at constant pressure
Details: 101.33 kPa, Crystal 4, Vacuum adiabatic calorimetry

O=P([O-])([O-])[O-].[Co+2].[Cs+] [cesium cobalt(II) phosphate]
Details	molar heat capacity at constant pressure [J/K/mol]
5 K	1.355 ± 0.033
6 K	2.328 ± 0.05
6.05 K	2.228 ± 0.05
6.49 K	2.594 ± 0.058
6.93 K	2.96 ± 0.067
7 K	2.893 ± 0.067
7.36 K	3.11 ± 0.067
7.78 K	3.317 ± 0.075
8 K	3.492 ± 0.075
8.19 K	3.633 ± 0.083
8.62 K	4.041 ± 0.091
9 K	4.091 ± 0.091
9.08 K	4.232 ± 0.091
9.58 K	4.457 ± 0.091
10 K	4.689 ± 0.1
10.1 K	4.822 ± 0.1
10.63 K	5.13 ± 0.11
11.16 K	5.471 ± 0.12
11.67 K	5.737 ± 0.12
12.16 K	5.97 ± 0.12
13 K	6.635 ± 0.14
14.27 K	7.807 ± 0.17
15 K	8.29 ± 0.17
15.59 K	8.921 ± 0.067
16.94 K	10.37 ± 0.075
18.33 K	11.79 ± 0.083
19.77 K	13.05 ± 0.091
20 K	13.44 ± 0.091
20.92 K	14.28 ± 0.1
22.76 K	16.17 ± 0.11
24.48 K	17.93 ± 0.12
25 K	18.57 ± 0.12
26.27 K	19.85 ± 0.12
28.12 K	21.62 ± 0.12
30 K	23.49 ± 0.13
30.03 K	23.55 ± 0.13
32 K	25.54 ± 0.14
34.02 K	27.66 ± 0.16
35 K	28.29 ± 0.16
36.12 K	29.27 ± 0.17
37.97 K	30.99 ± 0.17
40 K	33.01 ± 0.18
40.47 K	33.46 ± 0.12
42.73 K	35.36 ± 0.13
45 K	37.42 ± 0.14
45.02 K	37.41 ± 0.14
47.34 K	39.6 ± 0.15
49.71 K	41.16 ± 0.15
50 K	41.41 ± 0.15
52.12 K	42.9 ± 0.16
54.56 K	44.8 ± 0.17
57.05 K	46.5 ± 0.17
59.55 K	48 ± 0.17
60 K	48.39 ± 0.17
62.07 K	49.7 ± 0.18
64.59 K	51.3 ± 0.18
67.13 K	53 ± 0.19
69.7 K	54.4 ± 0.19
70 K	54.75 ± 0.2
72.02 K	56.1 ± 0.2
74.09 K	57.4 ± 0.21
76.18 K	58.59 ± 0.21
78.27 K	59.6 ± 0.21
80 K	60.56 ± 0.22
80.36 K	60.71 ± 0.22
80.84 K	60.8 ± 0.22
82.45 K	61.91 ± 0.22
82.83 K	62.06 ± 0.22
84.54 K	62.83 ± 0.22
85.25 K	63.18 ± 0.22
86.65 K	64.17 ± 0.22
87.47 K	64.52 ± 0.22
89.36 K	65.58 ± 0.23
89.69 K	65.7 ± 0.23
90 K	65.75 ± 0.27
91.92 K	66.67 ± 0.27
94.14 K	67.78 ± 0.27
96.37 K	69.09 ± 0.28
98.6 K	70.17 ± 0.28
100 K	70.96 ± 0.28
100.83 K	71.3 ± 0.29
103.07 K	72.37 ± 0.29
105.3 K	73.45 ± 0.29
107.54 K	74.66 ± 0.3
109.78 K	75.44 ± 0.3
110 K	75.59 ± 0.3
111.8 K	76.31 ± 0.3
114.54 K	77.64 ± 0.31
116.74 K	78.51 ± 0.31
118.98 K	79.46 ± 0.31
120 K	79.79 ± 0.31
121.23 K	80.28 ± 0.32
123.47 K	81.37 ± 0.32
125.71 K	82.23 ± 0.32
127.95 K	83.09 ± 0.32
130 K	83.89 ± 0.33
130.19 K	83.89 ± 0.33
132.43 K	84.89 ± 0.33
134.67 K	85.72 ± 0.33
136.91 K	86.55 ± 0.33
139.14 K	87.39 ± 0.33
140 K	87.97 ± 0.33
141.38 K	88.3 ± 0.33
143.49 K	89.3 ± 0.33
145.85 K	90.21 ± 0.33
148.08 K	91.21 ± 0.33
150 K	91.96 ± 0.33
150.3 K	91.79 ± 0.33
151.78 K	92.54 ± 0.33
152.91 K	93.04 ± 0.33
153.96 K	93.62 ± 0.33
155.41 K	94.12 ± 0.33
157.59 K	94.87 ± 0.33
159.03 K	95.37 ± 0.33
160 K	95.78 ± 0.33
161.93 K	96.28 ± 0.33
163.35 K	96.95 ± 0.33
164.07 K	97.28 ± 0.33
165.61 K	97.86 ± 0.33
166.94 K	98.53 ± 0.33
167.88 K	98.78 ± 0.33
170 K	99.36 ± 0.33
170.03 K	99.61 ± 0.33
172.23 K	100.19 ± 0.33
174.44 K	100.85 ± 0.33
176.64 K	101.6 ± 0.42
178.83 K	102.35 ± 0.42
180 K	102.68 ± 0.42
181.02 K	103.1 ± 0.42
183.21 K	103.93 ± 0.42
185.4 K	104.51 ± 0.42
187.59 K	105.09 ± 0.42
189.78 K	105.59 ± 0.42
190 K	105.76 ± 0.42
191.97 K	106.18 ± 0.42
194.89 K	106.84 ± 0.42
196.33 K	107.26 ± 0.42
198.51 K	107.92 ± 0.42
200 K	108.59 ± 0.42
200.68 K	108.67 ± 0.42
202.82 K	109.34 ± 0.42
204.99 K	109.92 ± 0.42
207.16 K	110.5 ± 0.42
209.32 K	111.16 ± 0.42
210 K	111.25 ± 0.42
211.49 K	111.66 ± 0.42
213.66 K	112.25 ± 0.42
215.82 K	112.83 ± 0.42
217.98 K	113.49 ± 0.42
220 K	113.83 ± 0.42
220.14 K	114.07 ± 0.42
222.3 K	114.66 ± 0.42
224.46 K	115.07 ± 0.42
226.62 K	115.82 ± 0.42
228.77 K	116.15 ± 0.42
230 K	116.49 ± 0.42
230.93 K	116.65 ± 0.42
233.08 K	117.32 ± 0.42
235.23 K	117.73 ± 0.42
237.35 K	118.4 ± 0.42
239.5 K	118.98 ± 0.42
240 K	119.23 ± 0.42
241.65 K	119.56 ± 0.42
243.79 K	120.23 ± 0.42
245.94 K	120.81 ± 0.42
248.09 K	121.39 ± 0.42
250 K	121.97 ± 0.42
250.23 K	121.97 ± 0.42
252.37 K	122.72 ± 0.42
254.5 K	123.3 ± 0.42
256.64 K	123.8 ± 0.42
258.77 K	124.3 ± 0.42
260 K	124.72 ± 0.42
260.91 K	124.88 ± 0.42
263.04 K	125.38 ± 0.42
265.17 K	126.05 ± 0.42
267.3 K	126.71 ± 0.42
269.42 K	127.29 ± 0.42
270 K	127.29 ± 0.42
271.51 K	127.71 ± 0.42
273.15 K	128.04 ± 0.42
273.63 K	128.13 ± 0.42
276.36 K	128.79 ± 0.42
278.4 K	129.21 ± 0.42
280 K	129.62 ± 0.42
280.51 K	129.79 ± 0.42
282.62 K	130.29 ± 0.5
284.72 K	130.62 ± 0.5
286.82 K	131.12 ± 0.5
288.92 K	131.62 ± 0.5
290 K	131.78 ± 0.5
291.02 K	132.2 ± 0.5
293.09 K	132.62 ± 0.5
295.18 K	133.03 ± 0.5
297.25 K	133.53 ± 0.5
298.15 K	133.7 ± 0.5
299.32 K	134.03 ± 0.5
300 K	134.11 ± 0.5
301 K	134.69 ± 0.5
301.38 K	134.69 ± 0.5
302.98 K	135.36 ± 0.5
303.43 K	135.36 ± 0.5

From the NIST ThermoML archive (doi:10.1016/j.jct.2015.12.017)
